What is called EC50 is the concentration at which the effect is half-maximal. A high value points to a less potent agent.

This assay deals with T1, mutant integrin CD11bE320A/CD18 (Homo sapiens, UniProt P11215, E336A).
T1 construct: expressed in transfected cells; host or cells: K562 (ATCC)
Kind of assay: HTS cell adhesion assay, K562 E320A cells on immobilized fibrinogen. The assay is classed as cell-based. As to conditions: Table 3, adhesion to fibrinogen, five point dose-response. As to the method: K562 cells stably expressing CD11c/CD18 (K562 CD11c/CD18) were generated similarly. […] K562 cells stably transfected with mutant integrin CD11bE320A/CD18 (K562 E320A) were generated according to literature protocols. All cell lines were maintained in Iscove's Modified Dulbecco's Medium (IMDM) supplemented with 10% heat-inactivated fetal bovine serum, 50 IU/mL penicillin and streptomycin and 0.5 mg/mL G418.
Cell adhesion assays with immobilized ligands were performed using the general protocol previously described and as illustrated in FIG. 1 [33]. Assays with all different K562 cell lines (K562, K562 CD11b/CD18, K562 CD11c/CD18 and K562 E320A) were performed in an identical fashion. Briefly, 384-well microplates (Corning 3700) were coated with 15 μg/mL fibrinogen (Fg) ligand in PBS^++ overnight at 4° C. At the same time, anti-CD18 (IB4) mAb was also coated. Subsequently, the coated wells were washed with 1% nonfat milk in TBS at room temperature for 1 hour. Next, the wells were washed 3 times with TBS, and the coated microplates were used in the HTS assays.
K562 CD11b/CD18, K562 CD11bE320A/CD18 and K562 CD11c/CD18 cells were washed with TBS, and cells were transferred to the Fg-coated wells of microplates in the assay buffer (Ca^2+ and Mg^2+ for physiological condition, Mn^2+ as the Positive control). A 1 μL aliquot of the compounds were transferred to each washed well with multichannel pipet from the 384-well plates.
The assay plates were incubated at 37° C. in the presence of small-molecule compounds for 30 min. To dislodge the non-adherent cell, the assay plates were gently inverted and kept in inverted position for 20 min at room temperature.
The cells were fixed with 37% formaldehyde in a small volume and the plates were kept inverted for 1 h. Upon the fixation, the solutions in the well were discarded. Next, the cells were fluorescently labeled with DAPI (0.5 μM final in TBS with 0.1% Triton X-100) and the quantitated with “Opera High Content Screening System” (Perkin Elmer).
Cell-adhesion under positive and negative control conditions was used to define the activity scale; signal corresponding to the number of non-small molecule treated cells adherent in activating buffer condition (in the presence of Mn^2+ ions as agonist, PC) was considered maximum (100% binding) and the signal corresponding to the number of non-small molecule treated cells adherent in basal buffer condition (in the presence of 1 mM each of Ca^2+ and Mg^2+, NC) was considered minimum (0% binding).

SMILES strings stand for the structures.

T1 sequence (P11215 17-1152 E336A): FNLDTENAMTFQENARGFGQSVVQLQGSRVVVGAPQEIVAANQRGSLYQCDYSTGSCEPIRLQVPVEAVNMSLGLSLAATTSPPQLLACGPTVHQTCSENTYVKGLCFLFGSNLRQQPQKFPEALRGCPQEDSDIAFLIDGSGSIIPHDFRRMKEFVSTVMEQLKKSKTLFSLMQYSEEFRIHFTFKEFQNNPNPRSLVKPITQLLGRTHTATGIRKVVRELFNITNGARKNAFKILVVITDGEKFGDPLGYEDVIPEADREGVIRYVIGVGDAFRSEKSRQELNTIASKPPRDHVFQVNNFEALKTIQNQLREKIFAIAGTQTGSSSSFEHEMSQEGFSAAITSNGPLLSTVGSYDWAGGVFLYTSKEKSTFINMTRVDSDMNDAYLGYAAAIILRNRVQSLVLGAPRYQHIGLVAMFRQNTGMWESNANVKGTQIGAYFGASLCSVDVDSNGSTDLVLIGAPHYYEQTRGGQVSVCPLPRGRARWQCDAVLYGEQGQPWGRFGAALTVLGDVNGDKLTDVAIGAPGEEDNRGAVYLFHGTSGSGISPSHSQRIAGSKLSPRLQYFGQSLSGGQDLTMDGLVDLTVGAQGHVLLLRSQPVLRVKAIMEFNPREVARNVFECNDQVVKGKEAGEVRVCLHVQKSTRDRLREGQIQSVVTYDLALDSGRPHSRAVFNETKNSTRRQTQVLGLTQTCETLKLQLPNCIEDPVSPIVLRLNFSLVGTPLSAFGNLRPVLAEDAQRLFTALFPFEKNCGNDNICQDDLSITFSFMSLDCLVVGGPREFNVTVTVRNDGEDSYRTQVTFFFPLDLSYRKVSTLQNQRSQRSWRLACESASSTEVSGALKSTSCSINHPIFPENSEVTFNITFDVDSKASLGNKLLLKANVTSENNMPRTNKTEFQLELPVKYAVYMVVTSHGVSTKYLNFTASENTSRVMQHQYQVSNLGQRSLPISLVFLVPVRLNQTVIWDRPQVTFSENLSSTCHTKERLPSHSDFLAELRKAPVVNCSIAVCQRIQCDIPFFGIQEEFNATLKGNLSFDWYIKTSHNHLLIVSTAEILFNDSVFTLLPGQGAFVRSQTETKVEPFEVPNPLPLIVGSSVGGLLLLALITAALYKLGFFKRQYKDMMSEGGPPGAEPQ
T1 sequence (P05107 23-769 partner): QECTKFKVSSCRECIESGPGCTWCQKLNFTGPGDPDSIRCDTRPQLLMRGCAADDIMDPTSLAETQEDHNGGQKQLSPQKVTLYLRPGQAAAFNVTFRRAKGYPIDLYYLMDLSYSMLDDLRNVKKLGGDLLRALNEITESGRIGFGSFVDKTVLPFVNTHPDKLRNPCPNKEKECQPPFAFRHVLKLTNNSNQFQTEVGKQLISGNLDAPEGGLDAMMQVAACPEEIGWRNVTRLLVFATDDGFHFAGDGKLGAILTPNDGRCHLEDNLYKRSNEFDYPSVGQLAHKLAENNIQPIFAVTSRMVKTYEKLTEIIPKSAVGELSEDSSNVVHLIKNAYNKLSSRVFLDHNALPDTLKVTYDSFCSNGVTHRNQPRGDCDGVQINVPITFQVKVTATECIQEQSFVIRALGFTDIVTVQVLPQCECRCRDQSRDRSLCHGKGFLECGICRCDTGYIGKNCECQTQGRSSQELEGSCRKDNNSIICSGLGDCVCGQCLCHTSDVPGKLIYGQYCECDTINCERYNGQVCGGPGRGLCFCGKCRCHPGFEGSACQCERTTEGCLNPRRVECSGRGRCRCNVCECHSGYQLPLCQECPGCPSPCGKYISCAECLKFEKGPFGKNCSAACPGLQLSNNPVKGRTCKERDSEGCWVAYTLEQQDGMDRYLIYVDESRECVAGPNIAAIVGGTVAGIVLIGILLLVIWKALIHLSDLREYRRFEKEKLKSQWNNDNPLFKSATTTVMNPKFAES

With `CN(C)c1ccc(NC(=O)CN2C(=O)CC(c3ccccc3)=Nc3ccccc32)cc1` [Compound 656131], the midpoint of the response, the EC50, lay at 9.97 µM. In turn, `CN(CCC#N)C(=O)COC(=O)c1c2c(nc3ccccc13)/C(=C/c1ccco1)CC2` [Compound 5801934] gave a half-maximal effective concentration (EC50) of 7.85 µM. For `O=C(CSc1nc2ccccc2c2nc3ccccc3n12)NCc1ccco1` [Compound 3238872], the EC50 came out at 19.1 µM. In the case of `COC(=O)c1c(NC(=O)CN2CCC3(O)CCCCC3C2c2ccc(OC)cc2OC)sc(C)c1C` (stereo not shown) [Compound 4971819] it was 60.2 µM; in that of `N#Cc1c(-c2ccccc2)cc(-c2ccco2)c(C#N)c1N` [Compound 625239], 7.74 µM; in that of `COc1ccc(-c2nn(C)c(=O)c3ccccc23)cc1NC(=O)Cn1nc(C)c2ccccc2c1=O` [Compound 1314910], 11.7 µM.

`CSCCOC(=O)c1[nH]c2c(c1C)C(=O)CC(c1ccco1)C2` (stereo not shown) [Compound 3162305] displayed an EC50 of 10.4 µM. With `COc1ccc(NC(=O)CCC(=O)OCC(=O)c2ccc(Oc3ccc([N+](=O)[O-])cc3)cc2)cc1` [Compound 2912337] the figure was 12.4 µM. With `CCCSc1nnc(NC(=O)c2sc3nc(-c4cccs4)ccc3c2N)s1` [Compound 1773030] the figure was 7.74 µM; with `O=C(COC(=O)c1c2c(nc3ccccc13)/C(=C/c1cccc([N+](=O)[O-])c1)CCC2)NC1CCS(=O)(=O)C1` (stereo not shown) [Compound 5950432], 9.83 µM. Consider `CC(=O)c1ccc(N2C(=O)C3C(C2=O)C(C(=O)c2ccc(Cl)cc2)N2CCCC32)cc1` (stereo not shown) [Compound 665589], for which the EC50 came out at 14.5 µM. With `CCC(=O)Nc1ccc(C(=O)CSc2nc3ccc(C)cc3[nH]2)cc1` [Compound 2549650] the figure was 10.3 µM; with `Cc1cc(/C=C2\C(=O)NC(=O)N(c3ccc(Cl)cc3)C2=O)c(C)n1-c1sc2c(c1C#N)CCCC2` [Compound 1418314], 9.57 µM.

In turn, `COc1ccc(N=c2oc3ccc(OC)cc3cc2-c2nc3ccccc3[nH]2)cc1` [Compound 1212121] gave an EC50 of 18.8 µM. In turn, `COc1ccccc1CNC(=O)c1ccc2nc3[nH]c4ccccc4c3nc2c1` [Compound 6079611] showed an EC50 of 9.05 µM. `Cc1oc(-c2ccc(Cl)cc2)cc1-c1nn2c(-c3ccoc3C)nnc2s1` [Compound 2145570]: the EC50 was determined as 8.25 µM. Consider `Cn1c(SCC(=O)Nc2ccc3c(c2)oc2ccccc23)nnc1-c1ccccc1` [Compound 2193118], for which the EC50 worked out at 38.2 µM. With `CC(C)CN(C(=O)COC(=O)c1cc2c(s1)CCC2)C1CCS(=O)(=O)C1` (stereo not shown) [Compound 2998734] the figure was 8.02 µM; with `Cc1csc(NC(=O)CSc2nc3sc(C)c(C)c3c(=O)[nH]2)n1` [Compound 650604], 9.43 µM; with `O=C(CSc1nc2sc3c(c2c(=O)n1-c1ccccc1)CCCC3)NCc1ccco1` [Compound 1322134], 12.1 µM. In the case of `C=CCn1c(SCC(=O)Nc2sccc2C#N)nc2sc(C)c(C)c2c1=O` [Compound 1564171] it was 14.8 µM; in that of `CC(C)CCn1c(SCC(=O)N2CC(=O)Nc3ccccc32)nc2scc(-c3cccs3)c2c1=O` [Compound 2566842], 7.57 µM; in that of `CCCCn1c(=O)[nH]c(=O)c2c1nc(-c1ccc(-c3ccccc3Br)o1)n2CCOC` [Compound 3908086], 12.2 µM. In the case of `CCOC(=O)N1CCC(NC(=O)c2cccc3c2C(=O)N(c2ccc(OC)cc2)C3)CC1` [Compound 5307705] it was 9.93 µM; in that of `CCc1nc(SCC(=O)Nc2nnc(CC)s2)c2c(C)c(C)sc2n1` [Compound 3197508], 8.48 µM; in that of `O=C(NCC1OCCc2ccccc21)c1ccc(NC(=O)c2ccc(Cl)cc2)cc1` (stereo not shown) [Compound 5212443], 13 µM. With `COc1ccc(/C=C2/C(=O)N(c3nc4ccccc4s3)N=C2CSc2ccc(Cl)cc2)cc1` [Compound 5727347], the half-maximal effective concentration (EC50) came to 10.2 µM. With `O=C(Cc1cccs1)Nc1nnc(SCc2cccc3ccccc23)s1` [Compound 7191378] the figure was 8.13 µM.

Values taken from patent US20180319865A1, “Identification of Novel Small Molecule Beta2 Integrin Agonists” (Rush University Medical Center, priority 2016, published 2018).
